Measurements reported in patent publication US20240384268A1, “Oligonucleotides” (Hudson Institute of Medical Research, priority 2021, published 2024).
In the oligonucleotide strings, read from the 5' end, every base follows the letter of its sugar. An asterisk marks phosphorothioate; unmarked linkages are phosphodiester. Other units and linkages are bracketed, terminal groups are in braces. A string of capitals states the bases alone. d = 2'-deoxy (DNA); m = 2'-O-methyl

Assays:
cGAS [1] = target: T1, cGAS (Homo sapiens, UniProt Q8N884); assay: IFN-driven gene expression in BJ hTERT SV40T fibroblasts (constitutive cGAS activation), RT-qPCR; conditions: ASO transfected 20-100 nM overnight
T1 sequence (Q8N884 whole entry): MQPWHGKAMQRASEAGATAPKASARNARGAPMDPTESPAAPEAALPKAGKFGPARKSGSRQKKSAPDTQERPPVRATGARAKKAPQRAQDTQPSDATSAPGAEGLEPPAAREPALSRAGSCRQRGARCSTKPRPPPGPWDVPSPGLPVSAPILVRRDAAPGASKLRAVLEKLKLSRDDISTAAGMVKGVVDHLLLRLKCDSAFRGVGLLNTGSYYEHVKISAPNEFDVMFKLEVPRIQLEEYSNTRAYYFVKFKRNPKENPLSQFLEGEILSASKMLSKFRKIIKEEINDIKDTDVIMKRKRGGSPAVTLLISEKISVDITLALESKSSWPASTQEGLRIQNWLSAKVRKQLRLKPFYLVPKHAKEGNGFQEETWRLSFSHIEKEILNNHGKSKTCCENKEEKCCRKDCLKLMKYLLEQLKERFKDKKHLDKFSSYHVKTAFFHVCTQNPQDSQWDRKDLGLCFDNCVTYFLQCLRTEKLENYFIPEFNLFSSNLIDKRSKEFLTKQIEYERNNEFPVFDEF

cGAS [2] = target: T1, cGAS; assay: ISD70-driven IP-10 production in HT-29 cells, ELISA; format: cell-based; design: endogenous in cells; conditions: ISD70 24 h
Experimental: In such examples, inhibition of cGAS activity can be identified by observation of an overall decreased cGAS response of the cell population, or a lower proportion of cells having cGAS-positive activity as compared to positive control condition in which cells are treated with cGAS agonist in the absence of the oligonucleotide (or in the presence of an appropriate control inhibitory agent). In one example, THP-1 or HT-29 cells are transfected with ISD70 and incubated with an oligonucleotide. cGAS activity can then be determined by cytokine (e.g., IP-10 and/or IFNβ) expression (e.g., gene and/or protein expression) and/or secretion levels, such as by ELISA. A similar assay can be performed with LL171 cells transfected with ISD45. […] By way of example, cGAS enzymatic activity may be assessed in vitro using recombinant cGAS and then measuring activity thereof by way of a cGAMP ELISA.
For cGAS stimulations, cells were treated for indicated duration with ASOs, prior to transfection with ISD70 (human cells) or ISD45 (mouse cells) (the ASOs were not washed off prior to ISD transfection unless otherwise indicated). The cGAS ligands ISD45 (Stetson and Medzhitov, 2006) and ISD70 (also known as VACV-70 (Unterholzner et al., 2010)) (Table 1) were resuspended as follows: 5 1d of sense and 5 μl of antisense strands at 10 μg/μl were added to 90 μl PBS under sterile conditions, heated at 75° C. for 30 min, prior to letting cool down at room temperature and aliquoting (stock at 1 μg/1 l). The ISDs were transfected at a concentration of […] at a ratio of 1 μg:1 μl with Lipofectamine 2000 in Opti-MEM (Thermo Fisher Scientific). HEK-TLR3, HEK-TLR7 and […] were treated with indicated concentration of ASOs for 20-50 min, prior to stimulation with poly(I:C) (Invivogen), R848 (Invivogen), Motolimod (MedChemExpress) and the Class B CpG oligonucleotides ODN 2006 (synthesised by IDT and resuspended in RNase-free TE buffer [Table 1]), respectively. The TLR2/1 agonist PAM3CSK4 (Invivogen), the TLR4 agonist lipopolysaccharide (Invivogen), the Class B CpG oligonucleotides ODN 1826 (synthesised by IDT and resuspended in RNase-free TE buffer), the mouse Sting agonist DMXAA (Cayman) and the human STING agonist (compound #3 from (Raanjulu et al., 2018), referred to as GSK herein—kind gift from Cancer Therapeutics CRC, Australia) were used at indicated concentrations. Aspirin (Sigma—A2093) was resuspended in pure medium to 10 mM, filter sterilised and added to the cells at 2 mM final. All ASOs were synthesised by Integrated DNA Technologies (IDT), and resuspended in RNase-free TE buffer, pH 8.0 (Thermo Fisher Scientific). Cell viability was assessed by adding 1× fresh resazurin solution to the wells (10λ solution made up with 7 mg resazurin [Sigma—R7017] dissolved in 3.5 ml PBS, sterile filtered at […]) for 4 h, prior to reading at with a Fluostar OPTIMA (BMG LABTECH) plate-reader (fluorescence: Excitation 535 nm, Emission 590); wells with medium only and 1× resazurin were used as blanks.
Human IP-10 and IFN-β levels were measured using supernatants from the different cultures and were quantified using IP-10 (BD Biosciences, #550926) or IFN-β (PBL assay science, #41415-1) ELISA kits respectively, according to the manufacturers' protocol. Tetramethylbenzidine substrate (Thermo Fisher Scientific) was used for quantification of the cytokines on a Fluostar OPTIMA (BMG LABTECH) plate-reader.

THP-1 and HT-29 cells = assay: Cell viability, resazurin; conditions: THP-1 100 nM, HT-29 187.5 nM; 6 h, with or without ISD70 overnight

Q: Which “inhibition of constitutively expressed ISGs (IFIT1, IFIT2, IFI44; in words)” value (cGAS [1]) does the source give for “mG*mC*mG*mG*mU*A*T*C*C*A*T*G*T*C*C*mC*mA*mG*mG*mC (mG*mC*mG*mG*mU*dA*dT*dC*dC*dA*dT*dG*dT*dC*dC*mC*mA*mG*mG*mC; antisense) [C2-Mut1]” here?
A: Its value is “significantly more potent than its two nucleotide variant C2-Mut1v3”.

Q: And the “inhibition of ISD70-dependent IP-10 production (in words)” value (cGAS [2]; 187.5 nM ASO overnight)?
A: Its value is “most inhibitory sequence of ISD70 sensing”.

Q: And the “effect on ISD70-induced IP-10 production at low dose (in words)” value (cGAS [2]; ASO overnight at 125 nM (62.5-125 nM))?
A: Its value is “increased inhibitory activity”.

Q: And the cell viability (THP-1 and HT-29 cells)?
A: The cell viability was “did not significantly impact cell viability”.
